biological target: T1, human β3 adrenergic receptor (Homo sapiens, UniProt P13945); assay: cAMP (SPA) response in CHO cells transfected with human β3 adrenergic receptor; type: cell-based; parameters: key: fraction of maximal isoproterenol (10^-5 M) response; conditions: maximal response relative to maximal response of isoproterenol at 10^-5 M
T1 construct: Full length β3 AR clones (402 amino acids) containing the last 6 amino acids of hβ3-AR are prepared; expressed in transfected cells; host or cells: CHO (Chinese hamster ovary) cells
Experimental: Binding to the receptors was measured in Chinese Hamster ovary (CHO) cells that were transfected with adrenergic receptors.
The corresponding primer sequences are described in Mantzoros, C. […] The four fragments are ligated into a pUC 18 plasmid (Gibco-BRL) and sequenced.
CHO cells were grown in 24-well tissue culture plates in Dulbecco's Modified Eagle Media with 10% fetal bovine serum, MEM non-essential amino acids, Penicillin-Streptompycin and Geneticin. On the day of test procedure, growth medium was replaced with preincubation media (Dulbecco's Modified Eagle, Media) and incubated for 30 minutes at 37° C. […] Test compounds were tested over a concentration range of 10^−9 M to 10^−5 M for β3 cells and 10^−8 to 10^−4 M for β1 and β2 transfected cells. Isoproterenol (10^−5 M) was used as an internal standard for comparison of activity. Cells were incubated at 37° C. on a rocker for 30 min with the β3 cells and 15 min for β1 and β2 cells. Incubation was stopped with the addition of 0.2N HCl and neutralized with 2.5N NaOH. The plates, containing the cells and neutralized media, were stored at −20 degrees celsius until ready to test for cAMP using the SPA test kit (Amersham).
Data Analysis and Results: Data collected from the SPA test procedure were analyzed as percent of the maximal isoproterenol response at 10^−5 M. Activity curves were plotted using the SAS statistical and graphics software.

T1 sequence (P13945 whole entry): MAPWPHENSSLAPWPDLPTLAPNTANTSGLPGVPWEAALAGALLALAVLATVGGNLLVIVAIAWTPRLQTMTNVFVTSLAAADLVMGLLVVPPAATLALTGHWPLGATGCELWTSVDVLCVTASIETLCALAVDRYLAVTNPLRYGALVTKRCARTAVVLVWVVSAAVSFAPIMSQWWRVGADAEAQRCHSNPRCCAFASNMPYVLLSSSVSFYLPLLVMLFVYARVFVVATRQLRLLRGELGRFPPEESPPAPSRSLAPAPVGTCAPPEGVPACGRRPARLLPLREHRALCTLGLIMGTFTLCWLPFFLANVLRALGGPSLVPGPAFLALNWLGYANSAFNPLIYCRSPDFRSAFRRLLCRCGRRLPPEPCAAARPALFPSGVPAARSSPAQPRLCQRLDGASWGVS

| Compound | IA(β3) |
| --- | --- |
| COC(=O)c1sccc1S(=O)(=O)Nc1ccc(N2CCC(NC[C@H](O)c3ccc(O)c(NS(C)(=O)=O)c3)CC2)cc1 [Example 320, Methyl3-[(4-{4-[((2R)-2-hydroxy-2-{4-hydroxy-3-[(methylsulfonyl)amino]-phenyl}ethyl)amino]-1-piperidinyl}anilino)sulfonyl]-2-thiophenecarboxylate] | 0.87 |
| CC(C)C[C@H](NC(=O)c1ccc(N2CCC(NC[C@H](O)c3ccc(O)c(NS(C)(=O)=O)c3)CC2)cc1)C(=O)O [Example 199, (2S)-2-(4-{4-[(2R)-2-Hydroxy-2-(4-hydroxy-3-methanesulfonylamino-phenyl)-ethylamino]-piperidin-1-yl}-benzoylamino)-4-methyl-pentanoic acid] | 1 |
| O=C1NC(=O)C(Cc2ccc(N3CCC(NC[C@H](O)COc4cccc5[nH]c(=O)[nH]c45)CC3)c(F)c2)S1 (stereo partly drawn) [Example 67, 5-(3-Fluoro-4-{4-[(2S)-2-hydroxy-3-(2-oxo-2,3-dihydro-1H-benzoimidazol-4-yloxy)-propylamino]-piperidin-1-yl}-benzyl)-thiazolidine-2,4-dione] | 1.06 |
| COc1ccc(S(=O)(=O)Nc2ccc(N3CCC(NC[C@H](O)COc4cccc5[nH]c6ccccc6c45)CC3)cc2)cc1OC [Example 292, N-[4-(4-{[(2S)-3-(9H-Carbazol-4-yloxy)-2-hydroxypropyl]amino}-1-piperidinyl)phenyl]-3,4-dimethoxybenzenesulfonamide] | 0.75 |
| CS(=O)(=O)Nc1cc([C@@H](O)CNC2CCN(c3ccc(NC(=O)NCC(=O)O)cc3)CC2)ccc1O [Example 378, {[(4-{4-[((2R)-2-Hydroxy-2-{4-hydroxy-3-[(methylsulfonyl)amino]phenyl}ethyl)amino]-1-piperidinyl}anilino)carbonyl]amino}acetic acid] | 0.94 |
| CCCCS(=O)(=O)N(CC(=O)OCc1ccccc1)c1ccc(N2CCC(NC[C@H](O)c3ccc(O)c(NS(C)(=O)=O)c3)CC2)cc1 [Example 342] | 1 |
| O=c1[nH]c2cccc(OC[C@@H](O)CNC3CCN(c4ccc(NS(=O)(=O)c5ccc(Cl)c(Cl)c5)cc4)CC3)c2[nH]1 [Example 327, 3,4-Dichloro-N-{4-[4-({(2S)-2-hydroxy-3-[(2-oxo-2,3-dihydro-1H-benzimidazol-4-yl)oxy]propyl}amino)-1-piperidinyl]phenyl}benzenesulfonamide] | 0.86 |
| O=c1[nH]c2cccc(OC[C@@H](O)CNC3CCN(c4ccc(NS(=O)(=O)c5ccc(-c6ccon6)s5)cc4)CC3)c2[nH]1 [Example 287, N-{4-[4-({(2S)-2-Hydroxy-3-[(2-oxo-2,3-dihydro-1H-benzimidazol-4-yl)oxy]propyl}-amino)-1-piperidinyl]phenyl}-5-(3-isoxazolyl)-2-thiophenesulfonamide] | 0.92 |
| O=[N+]([O-])c1ccc(Oc2c(Cl)cc(S(=O)(=O)Nc3ccc(N4CCC(NCC(O)c5cccc(O)c5)CC4)cc3)cc2Cl)c(Cl)c1 (centres unmarked) [Example 354, 3,5-Dichloro-4-(2-chloro-4-nitrophenoxy)-N-[4-(4-{[2-hydroxy-2-(3-hydroxyphenyl)-ethyl]amino}-1-piperidinyl)phenyl]benzenesulfonamide] | 0.73 |
| COc1ccc(OC)c(S(=O)(=O)Nc2ccc(N3CCC(NC[C@H](O)COc4cccc5[nH]c(=O)[nH]c45)CC3)cc2)c1 [Example 334, N-{4-[4-({(2S)-2-Hydroxy-3-[(2-oxo-2,3-dihydro-1H-benzimidazol-4-yl)oxy]propyl}-amino)-1-piperidinyl]phenyl}-2,5-dimethoxybenzenesulfonamide] | 0.91 |
| COc1ccc(S(=O)(=O)Nc2ccc(N3CCC(NC[C@H](O)COc4ccc(O)c(NS(C)(=O)=O)c4)CC3)cc2)cc1OC [Example 308, N-(4-{4-[((2S)-2-Hydroxy-3-{4-hydroxy-3-[(methylsulfonyl)amino]phenoxy}propyl)-amino]-1-piperidinyl}phenyl)-4-dimethoxybenzenesulfonamide] | 1.4 |
| O=S(=O)(Nc1ccc(N2CCC(NC[C@H](O)COc3ccc(O)cc3)CC2)cc1)c1ccc(S(=O)(=O)c2ccc(C(F)(F)F)cn2)s1 [Example 300, N-[4-(4-{[(2S)-2-Hydroxy-3-(4-hydroxyphenoxy)propyl]amino}-1-piperidinyl)phenyl]-5-{[5-(trifluoromethyl)-2-pyridinyl]sulfonyl}-2-thiophenesulfonamide] | 0.78 |
| O=[N+]([O-])c1ccc(Oc2c(Cl)cc(S(=O)(=O)Nc3ccc(N4CCC(NC[C@H](O)COc5ccccc5)CC4)cc3)cc2Cl)c(Cl)c1 [Example 353, 3,5-Dichloro-4-(2-chloro-4-nitrophenoxy)-N-[4-(4-{[(2S)-2-hydroxy-3-phenoxypropyl]amino}-1-piperidinyl)phenyl]benzenesulfonamide] | 0.97 |
| COc1cc(C(O)CNC2CCN(c3ccc(NS(=O)(=O)c4ccc(NC(C)=O)cc4)cc3)CC2)ccc1O (centres unmarked) [Example 267, N-(4-{[4-(4-{[2-Hydroxy-2-(4-hydroxy-3-methoxyphenyl)ethyl]amino}-1-piperidinyl)anilino]sulfonyl}phenyl)acetamide] | 0.99 |
| CCCCS(=O)(=O)Nc1ccc(N2CCC(NC[C@H](O)COc3ccc(O)c(NS(=O)(=O)c4ccccc4)c3)CC2)cc1 [Example 315, N-[5-({(2S)-3-[(1-{4-[(Butylsulfonyl)amino]phenyl}-4-piperidinyl)amino]-2-hydroxypropyl}oxy)-2-hydroxyphenyl]benzenesulfonamide] | 1.2 |
| O=S(=O)(Nc1ccc(N2CCC(NC[C@@H](O)c3cccc(O)c3)CC2)cc1)c1cccs1 [Example 357, N-[4-(4-{[(2S)-2-Hydroxy-2-(3-hydroxyphenyl)ethyl]amino}-1-piperidinyl)phenyl]-2-thiophenesulfonamide] | 0.87 |
| O=C(NCc1ccc(S(=O)(=O)Nc2ccc(N3CCC(NC[C@H](O)COc4cccc5[nH]c(=O)[nH]c45)CC3)cc2)s1)c1ccccc1 [Example 347, N-{[5-({4-[4-({(2S)-2-Hydroxy-3-[(2-oxo-2,3-dihydro-1H-benzimidazol-4-yl)oxy]propyl}amino)-1-piperidinyl]anilino}sulfonyl)-2-thienyl]methyl}benzamide] | 0.91 |
| O=c1[nH]c2cccc(OC[C@@H](O)CNC3CCN(c4ccc(NS(=O)(=O)c5ccc(Cl)cc5)cc4)CC3)c2[nH]1 [Example 331, 4-Chloro-N-{4-[4-({(2S)-2-hydroxy-3-[(2-oxo-2,3-dihydro-1H-benzimidazol-4-yl)oxy]propyl}amino)-1-piperidinyl]phenyl}benzenesulfonamide] | 1 |
| O=c1[nH]c2cccc(OC[C@@H](O)CNC3CCN(c4ccc(NS(=O)(=O)c5ccc(S(=O)(=O)c6ccc(C(F)(F)F)cn6)s5)cc4)CC3)c2[nH]1 [Example 299] | 1.1 |
| O=c1[nH]c2cccc(OC[C@@H](O)CNC3CCN(c4ccc(NS(=O)(=O)c5ccc(OC(F)(F)F)cc5)cc4)CC3)c2[nH]1 [Example 329, N-{4-[4-({(2S)-2-Hydroxy-3-[(2-oxo-2,3-dihydro-1H-benzimidazol-4-yl)oxy]propyl}-amino)-1-piperidinyl]phenyl}-4-(trifluoromethoxy)benzenesulfonamide] | 0.9 |
| O=C(NCc1ccc(S(=O)(=O)Nc2ccc(N3CCC(NC[C@H](O)COc4ccccc4)CC3)cc2)s1)c1ccccc1 [Example 348] | 0.63 |
| CCCCS(=O)(=O)Nc1ccc(N2CCC(NC[C@H](O)COc3ccc(O)c4c3CCC(=O)N4)CC2)cc1 [Example 306, N-{4-[4-({(2S)-2-Hydroxy-3-[(8-hydroxy-2-oxo-1,2,3,4-tetrahydro-5-quinolinyl)oxy]-propyl}amino)-1-piperidinyl]phenyl}-1-butanesulfonamide] | 1.1 |
| CS(=O)(=O)Nc1cc([C@@H](O)CNC2CCN(c3ccc(NS(=O)(=O)c4ccsc4C(=O)O)cc3)CC2)ccc1O [Example 321, 3-[(4-{4-[((2R)-2-Hydroxy-2-{4-hydroxy-3-[(methylsulfonyl)amino]phenyl}ethyl)amino]-1-piperidinyl}anilino)sulfonyl]-2-thiophenecarboxylic acid] | 1.05 |
| O=c1[nH]c2cccc(OC[C@@H](O)CNC3CCN(c4ccc(NS(=O)(=O)c5sc(Cl)cc5Br)cc4)CC3)c2[nH]1 [Example 286, 3-Bromo-5-chloro-N-{4-[4-({(2S)-2-hydroxy-3-[(2-oxo-2,3-dihydro-1H-benzimidazol-4-yl)oxy]propyl}amino)-1-piperidinyl]phenyl}-2-thiophenesulfonamide] | 0.91 |
| CCCCCCNC(=O)Nc1ccc(S(=O)(=O)Nc2ccc(N3CCC(NC[C@H](O)COc4ccc(O)c5c4CCC(=O)N5)CC3)cc2)cc1 [Example 305, 4-{[(Hexylamino)carbonyl]amino}-N-{4-[4-({(2S)-2-hydroxy-3-[(8-hydroxy-2-oxo-1,2,3,4-tetrahydro-5-quinolinyl)oxy]propyl}amino)-1-piperidinyl]phenyl}benzenesulfonamide] | 1 |
| Cc1c(S(=O)(=O)Nc2ccc(N3CCC(NC[C@H](O)COc4cccc5[nH]c(=O)[nH]c45)CC3)cc2)sc2ccc(Cl)cc12 [Example 283, 5-Chloro-N-{4-[4-({(2S)-2-hydroxy-3-[(2-oxo-2,3-dihydro-1H-benzimidazol-4-yl)oxy]propyl}amino)-1-piperidinyl]phenyl}-3-methyl-1-benzothiophene-2-sulfonamide] | 0.81 |
